Test results published in patent US20070128217A1 (priority 2003, published 2007).

How the values were obtained:
[1] = test system: antibodies in sera from SARS patients (sera 1a, 1b, 2, 6, 37, 62, London, SARS-yellow, SARS-green); assay type: binding, human; set-up: Binding of serum 6 to linear peptides of protein X1 of SARS-CoV Urbani / Binding of serum 37 to linear peptides of protein X1 of SARS-CoV Urbani / Binding of serum 6 to looped/cyclic peptide (PEPSCAN-ELISA) / Binding of serum 37 to looped/cyclic peptide (PEPSCAN-ELISA) / Binding of serum 37 to looped/cyclic peptides of protein X1 of SARS-CoV Urbani / Binding of serum 6 to linear peptides of protein X2 / Binding of serum 37 to linear peptides of protein X2 / Binding of serum 37 to looped/cyclic peptides of protein X2 of SARS-CoV Urbani / Binding of serum 6 to linear peptides of protein M of SARS-CoV Urbani / Binding of serum 37 to linear peptides of protein M of SARS-CoV Urbani / Binding of serum 6 to looped/cyclic peptides of protein M of SARS-CoV Urbani / Binding of serum 37 to looped/cyclic peptides of protein M of SARS-CoV Urbani / Binding of serum 6 to linear peptides of protein X3 of SARS-CoV Urbani / Binding of serum 37 to linear peptides of protein X3 of SARS-CoV Urbani / Binding of serum 37 to looped/cyclic peptides of protein X3 of SARS-CoV Urbani / Binding of serum 6 to linear peptides of protein X4 of SARS-CoV Urbani / Binding of serum 37 to linear peptides of protein X4 of SARS-CoV Urbani / Binding of serum 37 to looped/cyclic peptides of protein X4 of SARS-CoV Urbani / Binding of serum 6 to linear peptides of protein X5 of SARS-CoV Urbani / Binding of serum 37 to linear peptides of protein X5 of SARS-CoV Urbani / Binding of serum 37 to looped/cyclic peptides of protein X5 of SARS-CoV Urbani / Binding of serum 6 to linear peptides of protein N of SARS-CoV Urbani / Binding of serum 37 to linear peptides of protein N of SARS-CoV Urbani / Binding of serum 6 to linear peptide (PEPSCAN-ELISA) / Binding of serum 1a to looped/cyclic peptides of protein N of SARS-CoV Urbani / Binding of serum 1b to looped/cyclic peptides of protein N of SARS-CoV Urbani / Binding of serum 2 to looped/cyclic peptides of protein N of SARS-CoV Urbani / Binding of serum 6 to looped/cyclic peptides of protein N of SARS-CoV Urbani / Binding of serum 37 to looped/cyclic peptides of protein N of SARS-CoV Urbani / Binding of serum 62 to looped/cyclic peptides of protein N of SARS-CoV Urbani / Binding of serum London to looped/cyclic peptides of protein N of SARS-CoV Urbani / Binding of serum SARS-green to looped/cyclic peptides of protein N of SARS-CoV Urbani: unit not given here
[2] = test system: rabbit serum obtained by immunizing a rabbit with the SARS-CoV strain Frankfurt 1; assay type: binding; set-up: Binding of a rabbit serum to linear peptides / Binding of a rabbit serum to looped peptides / Rabbit serum linear peptides / Rabbit serum looped peptides / Binding of a rabbit serum to linear peptides of protein N of SARS-CoV Urbani (Rabbit serum linear peptides) / Binding of a rabbit serum to looped/cyclic peptides of protein N of SARS-CoV Urbani (Rabbit serum looped peptides): unit not given here
[3] = test system: recombinant human anti-SARS-CoV antibody 03-018; assay type: binding; set-up: Binding of antibody 03-018 to linear peptides of the N protein of SARS-CoV Urbani / Binding of antibody 03-018 to looped/cyclic peptides of the N protein of SARS-CoV Urbani: unit not given here
[4] = test system: control sera (pooled serum of ten healthy LUMC hospital workers; commercial negative donor pooled serum from the Dutch bloodbank); assay type: binding, human; set-up: Binding of Control serum LUMC to linear peptides / Binding of Control serum Blood-bank to linear peptides / Binding of Control serum LUMC to looped peptides / Binding of Control Serum Blood-Bank to Looped peptides / Binding of Control serum LUMC to linear peptides of the protein M of SARS-CoV Urbani / Binding of Control serum Blood-bank to linear peptides of the protein M of SARS-CoV Urbani / Binding of Control serum LUMC to looped peptides of the protein M of SARS-CoV Urbani / Binding of Control Serum Blood-Bank to Looped peptides of the protein M of SARS-CoV Urbani: unit not given here

Row | Sequence | Binding of serum 1a to linear peptides of protein N of SARS-CoV Urbani [1] | Binding of serum 1a to looped/cyclic peptides of protein N of SARS-CoV Urbani [1] | Binding of serum 1b to linear peptides of protein N of SARS-CoV Urbani [1] | Binding of serum 1b to looped/cyclic peptides of protein N of SARS-CoV Urbani [1] | Binding of serum 2 to linear peptides of protein N of SARS-CoV Urbani [1] | Binding of serum 2 to looped/cyclic peptides of protein N of SARS-CoV Urbani [1] | Binding of serum 6 to looped/cyclic peptides of protein N of SARS-CoV Urbani [1] | Binding of serum 37 to looped/cyclic peptides of protein N of SARS-CoV Urbani [1] | Binding of serum 62 to looped/cyclic peptides of protein N of SARS-CoV Urbani [1] | Binding of serum London to looped/cyclic peptides of protein N of SARS-CoV Urbani [1] | Binding of serum SARS-green to looped/cyclic peptides of protein N of SARS-CoV Urbani [1] | Binding of serum SARS-yellow to looped/cyclic peptides of protein N of SARS-CoV Urbani [1] | Binding of a rabbit serum to linear peptides of protein N of SARS-CoV Urbani (Rabbit serum linear peptides) [2] | Binding of a rabbit serum to looped/cyclic peptides of protein N of SARS-CoV Urbani (Rabbit serum looped peptides) [2] | Binding of antibody 03-018 to linear peptides of the N protein of SARS-CoV Urbani [3] | Binding of antibody 03-018 to looped/cyclic peptides of the N protein of SARS-CoV Urbani [3] | Binding of Control Serum Blood-Bank to Looped peptides [4] | Binding of Control serum Blood-bank to linear peptides [4] | Binding of Control serum LUMC to linear peptides [4] | Binding of Control serum LUMC to looped peptides [4] | other results
1 | RPQGLPNNTASWFTA | 0.3 | 0.5 | 0.1 | 0.3 | 0.2 | 0.5 | 0.4 | 0.9 | 0.8 | 0.5 | 0.5 | 0.7 | 0.1 | 0.5 | 0.1 | 0.2 | 0.9 | 0.8 | 0.8 | 0.9 | Binding of serum 6 to linear peptides of protein N of SARS-CoV Urbani [1]: 0.2; Binding of serum 37 to linear peptides of protein N of SARS-CoV Urbani [1]: 0.7; Binding of serum 62 to linear peptides of protein N of SARS-CoV Urbani [1]: 0.7; Binding of serum London to linear peptides of protein N of SARS-CoV Urbani [1]: 0.5; Binding of serum SARS-green to linear peptides of protein N of SARS-CoV Urbani [1]: 0.3; Binding of serum SARS-yellow to linear peptides of protein N of SARS-CoV Urbani [1]: 0.4
2 | FGDQDLIRQGTDYKH |  | 0.4 |  | 0.3 |  | 0.4 | 0.2 | 0.7 | 0.6 | 0.4 | 0.7 | 0.5 | 0.1 | 0.5 | 0.1 | 0.2 | 0.6 | 0.8 | 0.7 | 0.7 | Binding of serum 1a to linear peptide (PEPSCAN-ELISA) [1]: 0.3; Binding of serum 1b to linear peptide (PEPSCAN-ELISA) [1]: 0.2; Binding of serum 2 to linear peptide (PEPSCAN-ELISA) [1]: 0.2; Binding of serum 6 to linear peptide (PEPSCAN-ELISA) [1]: 0.2; Binding of serum 37 to linear peptide (PEPSCAN-ELISA) [1]: 0.7; Binding of serum 62 to linear peptide (PEPSCAN-ELISA) [1]: 0.7; Binding of serum London to linear peptide (PEPSCAN-ELISA) [1]: 0.6; Binding of serum SARS-green to linear peptide (PEPSCAN-ELISA) [1]: 0.7; Binding of serum SARS-yellow to linear peptide (PEPSCAN-ELISA) [1]: 0.6
3 | HGAIKLDDKDPQFKD | 0.2 | 0.2 | 0.1 | 0.1 | 0.2 | 0.2 | 0.1 | 0.5 | 0.3 | 0.3 | 0.3 | 0.3 | 0.1 | 0.3 | 0.1 | 0.2 |  |  |  |  | Binding of serum 6 to linear peptides of protein N of SARS-CoV Urbani [1]: 0.1; Binding of serum 37 to linear peptides of protein N of SARS-CoV Urbani [1]: 0.8; Binding of serum 62 to linear peptides of protein N of SARS-CoV Urbani [1]: 0.7; Binding of serum London to linear peptides of protein N of SARS-CoV Urbani [1]: 0.6; Binding of serum SARS-green to linear peptides of protein N of SARS-CoV Urbani [1]: 0.4; Binding of serum SARS-yellow to linear peptides of protein N of SARS-CoV Urbani [1]: 0.6; Control Serum Blood-Bank Looped peptides [4]: 0.4; Control serum Blood-bank linear peptides [4]: 0.6; Control serum LUMC linear peptides [4]: 0.6; Control serum LUMC looped peptides [4]: 0.4
4 | LALLLLDRLNQLESK |  | 0.3 |  | 0.2 |  | 0.4 | 0.2 | 0.5 | 0.5 | 0.4 | 0.6 | 0.4 | 0.1 | 0.6 | 0.1 | 0.2 | 0.7 | 0.7 | 0.6 | 0.6 | Binding of serum 1a to linear peptide (PEPSCAN-ELISA) [1]: 0.2; Binding of serum 1b to linear peptide (PEPSCAN-ELISA) [1]: 0.1; Binding of serum 2 to linear peptide (PEPSCAN-ELISA) [1]: 0.1; Binding of serum 6 to linear peptide (PEPSCAN-ELISA) [1]: 0.1; Binding of serum 37 to linear peptide (PEPSCAN-ELISA) [1]: 0.5; Binding of serum 62 to linear peptide (PEPSCAN-ELISA) [1]: 0.5; Binding of serum London to linear peptide (PEPSCAN-ELISA) [1]: 0.7; Binding of serum SARS-green to linear peptide (PEPSCAN-ELISA) [1]: 0.4; Binding of serum SARS-yellow to linear peptide (PEPSCAN-ELISA) [1]: 0.5
